A value given as a limit tells only on which side of the number the result lay.

Drawing on US7932284B2, “Indole sulfonamide modulators of progesterone receptors” (Eli Lilly and Company, priority 2006, dated 2011), this text covers Ki for 21 compounds.

Assay [1] addresses T1, human GR (glucocorticoid receptor) (Homo sapiens, UniProt P04150).
T1 construct: expressed in transfected cells; host or cells: HEK293
T1 sequence (P04150 1-777): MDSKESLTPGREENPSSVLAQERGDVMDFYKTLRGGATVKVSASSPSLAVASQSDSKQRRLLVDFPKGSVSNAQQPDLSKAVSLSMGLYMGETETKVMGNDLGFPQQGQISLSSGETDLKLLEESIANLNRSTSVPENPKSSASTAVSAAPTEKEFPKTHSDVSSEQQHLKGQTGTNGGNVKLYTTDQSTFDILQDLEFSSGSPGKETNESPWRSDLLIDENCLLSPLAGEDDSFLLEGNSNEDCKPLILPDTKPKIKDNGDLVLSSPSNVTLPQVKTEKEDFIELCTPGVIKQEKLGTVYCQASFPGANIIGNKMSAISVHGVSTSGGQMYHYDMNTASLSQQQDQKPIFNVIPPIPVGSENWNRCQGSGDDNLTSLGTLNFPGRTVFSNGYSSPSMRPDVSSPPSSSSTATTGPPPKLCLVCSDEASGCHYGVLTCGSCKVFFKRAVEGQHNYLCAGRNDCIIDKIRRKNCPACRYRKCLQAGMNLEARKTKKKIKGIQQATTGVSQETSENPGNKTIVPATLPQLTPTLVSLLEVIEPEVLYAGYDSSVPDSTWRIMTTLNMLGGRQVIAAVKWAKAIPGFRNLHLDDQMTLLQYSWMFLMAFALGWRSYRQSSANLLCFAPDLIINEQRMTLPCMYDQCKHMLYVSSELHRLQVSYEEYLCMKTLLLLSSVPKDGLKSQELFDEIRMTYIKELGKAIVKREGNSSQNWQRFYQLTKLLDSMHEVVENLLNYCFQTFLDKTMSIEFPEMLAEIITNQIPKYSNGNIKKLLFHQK
Put plainly: GR competition binding assay (HEK293 cell lysate). The settings on record: 0.3 nM 3H-dexamethasone, 293-GR lysate. As for the experimental part:
(§1) Cell lysates from HEK293 cells overexpressing human GR (glucocorticoid receptor), AR (androgen receptor), MR (mineralocorticoid receptor) or PR (progesterone receptor) are used for competition binding assays to determine Ki values for compounds of interest. Briefly, competition binding assays are run in a buffer containing 20 mM HEPES, pH 7.6, 0.2 mM EDTA, 75 mM NaCl, 1.5 mM MgCl2, 20% glycerol, 20 mM sodium molybdate, 0.2 mM DTT, 20 ug/ml aprotinin, and 20 ug/ml leupeptin, using either 0.3 nM ^3H-dexamethasone for GR binding, 0.36 nM ^3H-methyltrienolone for AR binding, 0.25 nM ^3H-aldosterone for MR binding, or 0.29 nM ^3H-methyltrienolone for PR binding, and either 20 ug 293-GR lysate, 22 ug 293-AR lysate, 20 ug 293-MR lysate or 40 ug 293-PR lysate per well. Competing compounds are added at various concentrations in half-log increments. Non-specific binding is determined in the presence of 500 nM dexamethasone for GR binding, 500 nM aldosterone for MR binding, or 500 nM methyltrienolone for AR and PR binding. The binding reaction (140 μl) is incubated overnight at 4° C., then 70 μl of cold charcoal-dextran buffer (containing per 50 ml of assay buffer, 0.75 g of charcoal and 0.25 g of dextran) is added to each reaction. Plates are mixed 8 minutes on an orbital shaker at 4° C. Plates are then centrifuged at 3,000 rpm at 4° C. for 10 minutes. An aliquot of 120 μl of the mixture is transferred to another 96-well plate and 175 μl of Wallac Optiphase “Hisafe 3” scintillation fluid is added to each well. Plates are sealed and shaken vigorously on an orbital shaker. After an incubation of 2 hrs, plates are read in a Wallac Microbeta counter. […] The Kd for ^3H-dexamethasone for GR binding, ^3H-methyltrienolone for AR binding, ^3H-aldosterone for MR binding, or ^3H-methyltrienolone for PR binding, is determined by saturation binding. The IC50 values for compounds are converted to Ki using Cheng-Prusoff equation and the Kd determined by saturation binding assay.

Assay [2] has as its target T2, human PR (progesterone receptor) (Homo sapiens, UniProt P06401).
T2 construct: expressed in transfected cells; host or cells: HEK293
T2 sequence (P06401 1-933): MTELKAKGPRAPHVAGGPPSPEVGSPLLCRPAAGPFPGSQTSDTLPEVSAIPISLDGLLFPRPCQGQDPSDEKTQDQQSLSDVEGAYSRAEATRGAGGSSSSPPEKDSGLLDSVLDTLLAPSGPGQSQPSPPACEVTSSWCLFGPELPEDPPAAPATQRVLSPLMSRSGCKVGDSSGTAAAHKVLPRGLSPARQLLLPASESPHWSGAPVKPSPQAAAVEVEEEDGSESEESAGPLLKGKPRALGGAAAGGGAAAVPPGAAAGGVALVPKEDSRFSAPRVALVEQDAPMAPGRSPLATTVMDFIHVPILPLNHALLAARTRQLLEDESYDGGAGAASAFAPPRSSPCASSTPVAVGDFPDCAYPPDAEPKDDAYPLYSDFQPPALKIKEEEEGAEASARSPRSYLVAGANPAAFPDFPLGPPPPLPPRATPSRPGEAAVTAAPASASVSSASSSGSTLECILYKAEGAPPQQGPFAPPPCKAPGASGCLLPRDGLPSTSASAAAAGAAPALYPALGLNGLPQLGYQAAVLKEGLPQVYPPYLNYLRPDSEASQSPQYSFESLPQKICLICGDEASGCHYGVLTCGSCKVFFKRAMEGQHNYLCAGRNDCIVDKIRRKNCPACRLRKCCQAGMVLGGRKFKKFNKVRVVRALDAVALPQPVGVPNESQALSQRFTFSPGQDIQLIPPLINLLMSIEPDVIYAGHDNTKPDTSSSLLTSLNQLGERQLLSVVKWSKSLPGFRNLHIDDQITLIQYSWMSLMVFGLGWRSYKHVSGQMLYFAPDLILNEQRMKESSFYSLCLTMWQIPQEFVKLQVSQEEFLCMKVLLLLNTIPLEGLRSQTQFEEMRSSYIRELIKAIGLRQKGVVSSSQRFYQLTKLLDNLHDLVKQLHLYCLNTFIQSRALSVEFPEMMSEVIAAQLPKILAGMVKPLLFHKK
Put plainly: PR competition binding assay (HEK293 cell lysate). The settings on record: 0.29 nM 3H-methyltrienolone, 293-PR lysate. On the procedure:
as §1
More preferably the compounds of the present invention have PR binding value K; of <10 nM.

Regarding `CS(=O)(=O)Nc1ccc2c(-c3ccc(C#N)cc3)cn(CC3CCCCC3)c2c1` [Example 77, N-[3-(4-Cyano-phenyl)-1-cyclohexylmethyl-1H-indol-6-yl]-methanesulfonamide], the values for the Ki in assay [1] and in assay [2] were 100 to 500 nM and less than 50 nM, respectively.
As for `CCOC(=O)c1ccc(-c2cn(C(C)C)c3cc(NS(C)(=O)=O)ccc23)cc1` [Example 74, 4-(1-Isopropyl-6-methanesulfonylamino-1H-indol-3-yl)-benzoic acid ethyl ester], the Ki in assay [1] was greater than 1000 nM; in assay [2], less than 50 nM.
Regarding `CC(C)n1cc(-c2ccc(C#N)c(F)c2)c2ccc(NS(C)(=O)=O)cc21` [Example 38, N-[3-(4-Cyano-3-fluoro-phenyl)-1-isopropyl-1H-indol-6-yl]-methanesulfonamide], the Ki in assay [1] was greater than 1000 nM; in assay [2] it was less than 50 nM.
In the case of `COc1ccc(-c2cn(C(C)C)c3cc(NS(C)(=O)=O)ccc23)cn1` [Example 88, N-[1-Isopropyl-3-(6-methoxy-pyridin-3-yl)-1H-indol-6-yl]-methanesulfonamide], the Ki in assay [1] was greater than 1000 nM; in assay [2] it was less than 50 nM.
The like results for `Cc1ccc(-c2cn(C(C)C)c3cc(NS(C)(=O)=O)ccc23)cc1F` [Example 84, N-[3-(3-Fluoro-4-methyl-phenyl)-1-isopropyl-1H-indol-6-yl]-methanesulfonamide] were, in that order, greater than 1000 nM and less than 50 nM.
`COc1ccc(-c2cn(C(C)C)c3cc(NS(C)(=O)=O)ccc23)cc1C` [Example 86, N-[1-Isopropyl-3-(4-methoxy-3-methyl-phenyl)-1H-indol-6-yl]-methanesulfonamide]: the results for the Ki in assay [1] and in assay [2] were greater than 1000 nM and less than 50 nM, respectively.
With `CC(C)n1cc(-c2ccc(C#N)n2C)c2ccc(NS(C)(=O)=O)cc21` [Example 78, N-[3-(5-Cyano-1-methyl-1H-pyrrol-2-yl)-1-isopropyl-1H-indol-6-yl]-methanesulfonamide], the Ki in assay [1] was 100 to 500 nM; in assay [2], less than 50 nM.
On to `CC(C)n1cc(-c2ccc3c(c2)COC3=O)c2ccc(NS(C)(=O)=O)cc21` [Example 97, N-[1-Isopropyl-3-(1-oxo-1,3-dihydro-isobenzofuran-5-yl)-1H-indol-6-yl]-methanesulfonamide], for which the Ki in assay [1] is greater than 1000 nM; in assay [2], less than 50 nM.
Regarding `CSc1ccc(-c2cn(C(C)C)c3cc(NS(C)(=O)=O)ccc23)cc1` [Example 83, N-[1-Isopropyl-3-(4-methylsulfanyl-phenyl)-1H-indol-6-yl]-methanesulfonamide], the values for the Ki in assay [1] and in assay [2] were greater than 1000 nM and less than 50 nM, respectively.
With `CC(C)n1cc(-c2ccccc2)c2ccc(NS(C)(=O)=O)cc21` [Example 85, N-(1-Isopropyl-3-phenyl-1H-indol-6-yl)-methanesulfonamide], the Ki is greater than 1000 nM in assay [1] and less than 50 nM in assay [2].
The like results for `CC(C)n1cc(-c2ccc3c(cnn3C)c2)c2ccc(NS(C)(=O)=O)cc21` [Example 107, N-[1-Isopropyl-3-(1-methyl-1H-indazol-5-yl)-1H-indol-6-yl]-methanesulfonamide] were, in that order, greater than 1000 nM and 50 to 100 nM.
The like results for `CC(C)n1cc(-c2ccc(C=NO)cc2)c2ccc(NS(C)(=O)=O)cc21` [Example 94, N-{3-[4-(Hydroxyimino-methyl)-phenyl]-1-isopropyl-1H-indol-6-yl}-methanesulfonamide] were, in that order, greater than 1000 nM and less than 50 nM.
In the case of `CC(C)n1cc(-c2ccc(C#N)s2)c2ccc(NS(C)(=O)=O)cc21` [Example 43, N-[3-(5-Cyano-thiophen-2-yl)-1-isopropyl-1H-indol-6-yl]-methanesulfonamide], the Ki in assay [1] is greater than 1000 nM; in assay [2] it was less than 50 nM.
Regarding `Cn1cc(-c2ccc(C#N)cc2)c2ccc(NS(C)(=O)=O)cc21` [Example 25, N-[3-(4-Cyano-phenyl)-1-methyl-1H-indol-6-yl]-methanesulfonamide], the figures for the Ki in assay [1] and in assay [2] were greater than 1000 nM and less than 50 nM, respectively.
For the compound `Cn1cc(-c2ccc([N+](=O)[O-])cc2)c2ccc(NS(C)(=O)=O)cc21` [Example 30, N-[1-Methyl-3-(4-nitro-phenyl)-1H-indol-6-yl]-methanesulfonamide], the Ki was greater than 1000 nM in assay [1] and less than 50 nM in assay [2].
For the compound `CS(=O)(=O)Nc1ccc2c(-c3ccc(C#N)cc3)cn(C3CCCC3)c2c1` [Example 63, N-[3-(4-Cyano-phenyl)-1-cyclopentyl-1H-indol-6-yl]-methanesulfonamide], the Ki in assay [1] is greater than 1000 nM; in assay [2], less than 50 nM.
As for `CC(C)n1cc(-c2ccc3oc(=O)ccc3c2)c2ccc(NS(C)(=O)=O)cc21` [Example 96, N-[1-Isopropyl-3-(2-oxo-2H-chromen-6-yl)-1H-indol-6-yl]-methanesulfonamide], the Ki in assay [1] is greater than 1000 nM; in assay [2], less than 50 nM.
In the case of `CC(C)n1cc(-c2ccc(C(N)=O)cc2)c2ccc(NS(C)(=O)=O)cc21` [Example 87, 4-(1-Isopropyl-6-methanesulfonylamino-1H-indol-3-yl)-benzamide], the results for the Ki in assay [1] and in assay [2] were greater than 1000 nM and less than 50 nM, respectively.
As for `CC(C)n1cc(-c2ccc(C#N)cc2)c2ccc(NS(C)(=O)=O)cc21` [Example 28, N-[3-(4-Cyano-phenyl)-1-isopropyl-1H-indol-6-yl]-methanesulfonamide], the values for the Ki in assay [1] and in assay [2] were greater than 1000 nM and less than 50 nM, respectively.
For the compound `CC(C)n1cc(-c2ccc(O)cc2)c2ccc(NS(C)(=O)=O)cc21` [Example 93, N-[3-(4-Hydroxy-phenyl)-1-isopropyl-1H-indol-6-yl]-methanesulfonamide], the Ki in assay [1] was greater than 1000 nM; in assay [2] it was less than 50 nM.
On to `CC(C)n1cc(-c2ccc(C#N)cc2)c2ccc(NS(=O)(=O)C(F)(F)F)cc21` [Example 98, N-[3-(4-Cyano-phenyl)-1-isopropyl-1H-indol-6-yl]-C,C,C-trifluoro-methanesulfonamide], for which the Ki is greater than 1000 nM in assay [1] and less than 50 nM in assay [2].
